Values quoted from earlier work, collected in US8193242B2 (XenoPort, Inc., priority 2005, dated 2012).

Conditions: following oral administration

Duration of circulating levodopa: prolonged | Plasma concentrations of levodopa: low
SMILES: CC(C)(C)C(=O)Oc1ccc(C[C@H](N)C(=O)O)cc1O [NB-355]
